Values joined by “and” are separate entries in the source; they are usually repeats but may differ in a detail not shown here. Equal values may be shown once. Each block holds one substance with its values, some of them ahead of it.
Columns and labels:
[1] = molecular target: HLA-A2.1 (Homo sapiens, UniProt P04439, D140Y/D185E/D98H/E176V/E277Q/G131W/G231S/I119V/I121R/I166T/I218V/L300P/L318F/N151K/N90K/P208A/P217A/Q86G/Q94H/R138H/R169H/T345S); assay: Peptide binding to HLA-A2.1+ T2 cells under Brefeldin A treatment (peptide/HLA-A2.1 complex stability)
[2] = test system: dendritic cells; assay: Phenotypic analysis of dendritic cells matured with maturation factors; assay type: cell-based, human; details: DCs matured during last three days of culture
Procedure: Immature DCs were generated according to modified protocols of Romani et al. (1994) and Bakker et al. (1995). Briefly, fresh or frozen/thawed CD14+ cells were cultured in RPMI 1640 medium (Gibco-Life Technologies) supplemented with 10% FCS, 1,000 U/ml GM-CSF and 1,000 U/ml IL-4. The cell cultures were fed with fresh medium and GM-CSF and IL-4 every other day and cell differentiation was monitored by light microscopy. On day 7, the cultures were supplemented with different combinations of DC maturation factors such as lipopolysaccharide (100 U/ml), TNF-α (10 ng/ml), or IFN-α (1,000 U/ml) plus TNF-α (10 ng/ml). After three days of incubation, mature DCs (mDC) were harvested and evaluated for their phenotypes by flow cytometry. The maturation factor(s) yielding optimal DC maturation was determined and used to generate mDCs for peptide pulsing in upcoming studies. In this example, immature DCs obtained by the culture of CD 14+ monocytes with GM-CSF (1,000 U/ml) and IL-4 (1,000 U/ml) were induced to undergo maturation by incubation with LPS (100 Units/ml), TNF-α10 ng/ml) or TNF-α (10 ng/ml)+IFN-α50 ng/ml) during the final three days of the culture period. […] The highest up-regulation of the co-stimulatory (CD80 and CD86) and HLA-A2.1 MHC class I molecules was detected on DCs treated with TNF-α+IFN-α (Table 5).

[3] = test system: effector cells (T lymphocytes); details: APC: T2; 2 stims
[4] = test system: HLA-A2.1 positive ML-2 cells; assay: Cytotoxicity of peptide-specific CTLs against ML-2 cells (51Cr release); assay type: cell-based, human; details: for Cytotoxicity of peptide-specific CTLs against ML-2 cells (%): target:effector 1:60
Excerpt: The present example illustrates that that the present peptides are capable of inducing a T-lymphocyte response. In this example, antigen presenting cells were pulsed at 150 micrograms of each peptide per 1 million antigen presenting cells with the following amino acid sequences: […]

- binding to HLA-A2.1 on T2 cells, in words [1]: good and prolonged stable binding
Substance: YLISGDSPV (listed as Homo sapiens) [SEQ ID NO: 7, modified CD33 peptide]

- binding to HLA-A2.1 on T2 cells, in words [1]: good and prolonged stable binding
Substance: YIISGISPV (listed as Homo sapiens) [SEQ ID NO: 6, modified CD33 peptide]

- binding to HLA-A2.1 on T2 cells, in words [1]: good and prolonged stable binding
Substance: ALISGDSPV (listed as Homo sapiens) [SEQ ID NO: 16, modified CD33 peptide]
- immunogenicity in similar experiments [4]: immunogenic

The remaining lines, values behind:

Substance: TNF-α
- CD80 expression, mean channel fluorescence (MCF) [2]: 107
- CD86 expression, mean channel fluorescence (MCF) [2]: 96
- HLA-A2.1 expression, mean channel fluorescence (MCF) [2]: 475

Substance: YLALCLCLI (listed as Homo sapiens) [SEQ ID NO: 1, modified CD33 fragment peptide]
- Expression level of CD4 (T helper), mean fluorescence intensity [3]: 81 and 57
- Expression level of CD45RO (Memory), mean fluorescence intensity [3]: 1262 and 1432
- Expression level of CD95 (Activation), mean fluorescence intensity [3]: 99 and 102
- Cytotoxicity of peptide-specific CTLs against ML-2 cells (%) ([4]; APC: T2, 2 stimulations, donors F, G): 21% and 34%
- Cytotoxicity of peptide-specific CTLs against ML-2 cells (%) ([4]; APC: T2, 3 stimulations, donors F, G): 36% and 64%

Substance: YIISGDSPV (listed as Homo sapiens) [SEQ ID NO: 3, modified CD33 peptide]
- Cytotoxicity of peptide-specific CTLs against ML-2 cells (%) ([4]; APC: DC, 2 stimulations, different donors): 37%

Source: US8124069B2, “Immunogenic peptides” (Rush University Medical Center, priority 2002, dated 2012)
